Experimental data taken from publication PMC11062899, “De novo development of small cyclic peptides that are orally bioavailable” (Nature Chemical Biology, 2023).
“And” between values parts separate entries of the source, which are not always exact repeats. Equal entries are not always repeated. Where two headings read alike, the source gives them in different places.

Key:
[1] = biological target: human α-thrombin (Homo sapiens, UniProt P00734); assay: Protease inhibition, Ki for human α-thrombin (fluorogenic substrate Z-Gly-Gly-Arg-AMC); assay type: biochemical; conditions: human alpha thrombin; for Slope normalized to DMSO (proteolytic substrate cleavage over time): replicates R1-R3
Procedure, shortened: (§1)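 Ki derived through Cheng–Prusoff from IC50s (four-parameter logistic fit) against activity of peptide-free controls. Product fluorescence was read every 3 min over 30 min at 25 °C, substrate Z-Gly-Gly-Arg-AMC at 50 μM. Enzyme was 2 nM human or 3 nM rat α-thrombin, pH 7.4 buffer.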

[2] = biological target: T1, rat α-thrombin (Rattus norvegicus, UniProt P18292); assay: Protease inhibition, Ki for rat α-thrombin (fluorogenic substrate Z-Gly-Gly-Arg-AMC); assay type: biochemical; conditions: rat alpha thrombin; for Slope normalized to DMSO (proteolytic substrate cleavage over time): replicates R1-R3
T1 construct: rat α-thrombin (Molecular Innovations) were used at final concentrations of 2 nM and 3 nM; purchased Molecular Innovations
Procedure, shortened: as §1

[3] = biological target: T2, porcine pepsin (Sus scrofa, UniProt P00791); assay: Peptide stability in simulated gastric fluid (SGF); assay type: in vitro ADME
T2 construct: 0.32 g of porcine pepsin (Sigma-Aldrich, P7125) was dissolved under gentle agitation; purchased Sigma-Aldrich P7125
T2 sequence (P00791 60-385): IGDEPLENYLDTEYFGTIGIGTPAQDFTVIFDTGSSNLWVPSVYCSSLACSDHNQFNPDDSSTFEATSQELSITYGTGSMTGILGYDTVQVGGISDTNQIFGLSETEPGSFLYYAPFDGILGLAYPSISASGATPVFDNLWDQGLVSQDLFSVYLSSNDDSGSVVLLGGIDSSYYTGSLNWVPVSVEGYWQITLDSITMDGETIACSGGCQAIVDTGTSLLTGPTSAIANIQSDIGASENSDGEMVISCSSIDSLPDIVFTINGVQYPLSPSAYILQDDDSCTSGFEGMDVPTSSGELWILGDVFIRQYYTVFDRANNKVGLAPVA
Procedure, shortened: (§2)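 Peptide from a 1 mM DMSO stock was added to fluid pre-warmed at 37 °C. SGF was pH 1.2 NaCl with porcine pepsin (0.32 g per 100 ml), and SIF was pH 6.8 potassium phosphate with porcine pancreatin (1 g per 100 ml). Supernatant peptide was quantified by LC–MS, with residual expressed as T1/T0.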

[4] = Peptide stability in simulated intestinal fluid (SIF); assay type: in vitro ADME, porcine; conditions: simulated gi fluid; 8 h, 37 °C, pH 6.8; read-out: Proteolytic stability: SIF (8 h) % remaining
Procedure, shortened: as §2

[5] = system: porcine pancreatin; assay: as above; assay type: in vitro ADME; conditions: after 8 h vs 0 h (TIC)
Procedure, shortened: as §2

[6] = Passive artificial membrane permeability (PAMPA)

O=C1C[C@H]2CCCN2C(=O)[C@H](Cc2ccccc2)NC(=O)[C@@H](NC(=O)c2ccc(Cl)s2)CCSCc2cccc(n2)CSCCN1 [compound 33]
Ki ([1]; average of R1-R3, read-out: Ki Average, human alpha thrombin inhibition): 96.6 nM | Slope normalized to DMSO (proteolytic substrate cleavage over time) ([1]; peptide 1.02E-03 uM): 103.0 and 105.2 and 102.2 | Slope normalized to DMSO (proteolytic substrate cleavage over time) ([1]; peptide 1.04E+00 uM): 21.7 and 19.1 and 21.5 | Slope normalized to DMSO (proteolytic substrate cleavage over time) ([1]; peptide 1.27E-04 uM): 106.0 and 98.8 and 103.2 | Slope normalized to DMSO (proteolytic substrate cleavage over time) ([1]; peptide 1.30E-01 uM): 57.8 and 50.1 and 54.9 | Slope normalized to DMSO (proteolytic substrate cleavage over time) ([1]; peptide 1.59E-05 uM): 109.2 and 97.6 and 100.1 | Slope normalized to DMSO (proteolytic substrate cleavage over time) ([1]; peptide 1.63E-02 uM): 89.4 and 85.3 and 86.8 | Slope normalized to DMSO (proteolytic substrate cleavage over time) ([1]; peptide 1.67E+01 uM): 7.7 and 6.1 and 7.5 | Slope normalized to DMSO (proteolytic substrate cleavage over time) ([1]; peptide 2.03E-03 uM): 102.9 and 97.6 and 97.7 | Slope normalized to DMSO (proteolytic substrate cleavage over time) ([1]; peptide 2.08E+00 uM): 19.7 and 13.9 and 8.6 | Slope normalized to DMSO (proteolytic substrate cleavage over time) ([1]; peptide 2.54E-04 uM): 113.7 and 102.5 and 100.7 | Slope normalized to DMSO (proteolytic substrate cleavage over time) ([1]; peptide 2.60E-01 uM): 43.1 and 35.0 and 39.7 | Slope normalized to DMSO (proteolytic substrate cleavage over time) ([1]; peptide 3.18E-05 uM): 105.3 and 102.8 and 93.4 | Slope normalized to DMSO (proteolytic substrate cleavage over time) ([1]; peptide 3.26E-02 uM): 88.2 and 77.6 and 78.4 | Slope normalized to DMSO (proteolytic substrate cleavage over time) ([1]; peptide 3.33E+01 uM): 6.8 and 6.6 | Slope normalized to DMSO (proteolytic substrate cleavage over time) ([1]; peptide 4.07E-03 uM): 95.5 and 99.8 and 99.7 | Slope normalized to DMSO (proteolytic substrate cleavage over time) ([1]; peptide 4.17E+00 uM): 12.3 and 14.8 and 9.6 | Slope normalized to DMSO (proteolytic substrate cleavage over time) ([1]; peptide 5.09E-04 uM): 101.7 and 102.5 and 100.0 | Slope normalized to DMSO (proteolytic substrate cleavage over time) ([1]; peptide 5.21E-01 uM): 26.3 and 24.6 and 23.6 | Slope normalized to DMSO (proteolytic substrate cleavage over time) ([1]; peptide 6.36E-05 uM): 99.2 and 97.4 and 102.8 | Slope normalized to DMSO (proteolytic substrate cleavage over time) ([1]; peptide 6.51E-02 uM): 70.8 and 64.0 and 70.3 | Slope normalized to DMSO (proteolytic substrate cleavage over time) ([1]; peptide 6.67E+01 uM): 6.9 and 8.6 and 6.6 | Slope normalized to DMSO (proteolytic substrate cleavage over time) ([1]; peptide 7.95E-06 uM): 102.4 and 98.2 and 102.1 | Slope normalized to DMSO (proteolytic substrate cleavage over time) ([1]; peptide 8.14E-03 uM): 92.1 and 87.0 and 91.2 | Slope normalized to DMSO (proteolytic substrate cleavage over time) ([1]; peptide 8.33E+00 uM): 12.3 and 13.7 and 5.0 | IC50 ([1]; single replicates R1-R3, read-out: IC50, human alpha thrombin inhibition): 139 nM and 101 nM and 135 nM | Ki ([1]; single replicates R1-R3, read-out: Ki, human alpha thrombin inhibition): 108 nM and 78 nM and 104 nM | Ki ([2]; average of R1-R3, read-out: Ki Average, rat alpha thrombin inhibition): 48.7 nM | Slope normalized to DMSO (proteolytic substrate cleavage over time) ([2]; peptide 1.02E-03 uM): 97.0 and 99.6 and 95.3 | Slope normalized to DMSO (proteolytic substrate cleavage over time) ([2]; peptide 1.04E+00 uM): 14.5 and 15.6 and 13.7 | Slope normalized to DMSO (proteolytic substrate cleavage over time) ([2]; peptide 1.27E-04 uM): 100.8 and 101.2 and 98.8 | Slope normalized to DMSO (proteolytic substrate cleavage over time) ([2]; peptide 1.30E-01 uM): 42.9 and 43.5 and 41.1 | Slope normalized to DMSO (proteolytic substrate cleavage over time) ([2]; peptide 1.59E-05 uM): 100.2 and 103.5 and 96.9 | Slope normalized to DMSO (proteolytic substrate cleavage over time) ([2]; peptide 1.63E-02 uM): 81.2 and 82.0 and 78.1 | Slope normalized to DMSO (proteolytic substrate cleavage over time) ([2]; peptide 1.67E+01 uM): 4.8 and 6.2 and 3.6 | Slope normalized to DMSO (proteolytic substrate cleavage over time) ([2]; peptide 2.03E-03 uM): 97.0 and 98.5 and 91.0 | Slope normalized to DMSO (proteolytic substrate cleavage over time) ([2]; peptide 2.08E+00 uM): 9.6 and 11.2 and 10.1 | Slope normalized to DMSO (proteolytic substrate cleavage over time) ([2]; peptide 2.54E-04 uM): 101.1 and 99.8 and 96.9 | Slope normalized to DMSO (proteolytic substrate cleavage over time) ([2]; peptide 2.60E-01 uM): 27.4 and 28.5 and 28.0 | Slope normalized to DMSO (proteolytic substrate cleavage over time) ([2]; peptide 3.18E-05 uM): 101.5 and 104.3 and 97.0 | Slope normalized to DMSO (proteolytic substrate cleavage over time) ([2]; peptide 3.26E-02 uM): 78.3 and 77.8 and 74.1 | Slope normalized to DMSO (proteolytic substrate cleavage over time) ([2]; peptide 3.33E+01 uM): 5.1 and 5.9 and 3.3 | Slope normalized to DMSO (proteolytic substrate cleavage over time) ([2]; peptide 4.07E-03 uM): 94.4 and 95.7 and 92.3 | Slope normalized to DMSO (proteolytic substrate cleavage over time) ([2]; peptide 4.17E+00 uM): 6.3 and 7.7 and 3.6 | Slope normalized to DMSO (proteolytic substrate cleavage over time) ([2]; peptide 5.09E-04 uM): 98.0 and 98.3 and 95.3 | Slope normalized to DMSO (proteolytic substrate cleavage over time) ([2]; peptide 5.21E-01 uM): 18.6 and 18.9 and 16.5 | Slope normalized to DMSO (proteolytic substrate cleavage over time) ([2]; peptide 6.36E-05 uM): 100.6 and 99.7 and 96.2 | Slope normalized to DMSO (proteolytic substrate cleavage over time) ([2]; peptide 6.51E-02 uM): 60.0 and 58.6 and 62.0 | Slope normalized to DMSO (proteolytic substrate cleavage over time) ([2]; peptide 6.67E+01 uM): 5.5 and 6.9 and 1.9 | Slope normalized to DMSO (proteolytic substrate cleavage over time) ([2]; peptide 7.95E-06 uM): 105.3 and 103.4 and 99.9 | Slope normalized to DMSO (proteolytic substrate cleavage over time) ([2]; peptide 8.14E-03 uM): 89.5 and 90.6 and 84.9 | Slope normalized to DMSO (proteolytic substrate cleavage over time) ([2]; peptide 8.33E+00 uM): 6.7 and 6.6 and 4.7 | IC50 ([2]; single replicates R1-R3, read-out: IC50, rat alpha thrombin inhibition): 86.2 nM and 82.3 nM and 95.4 nM | Ki ([2]; single replicates R1-R3, read-out: Ki, rat alpha thrombin inhibition): 47.7 nM (2×) and 45.6 nM (2×) and 52.8 nM (2×) | SGF stability, Residual peptide Average ([3]; after 8 h vs 0 h (TIC), average of R1-R3): 94.64 | SGF stability, Residual peptide ([3]; after 8 h vs 0 h (TIC), single replicates R1-R3): 93.36 and 101.37 and 89.19 | remaining at 8 h ([3]; simulated gi fluid, 8 h, 37 °C, pH 1.2, read-out: Proteolytic stability: SGF (8 h) % remaining): 95 ± 6% | remaining at 8 h [4]: 69 ± 6% | SIF stability, Residual peptide Average ([5]; average of R1-R3): 68.57 | SIF stability, Residual peptide ([5]; single replicates R1-R3): 74.90 and 62.29 and 68.52 | PAMPA permeability: % permeability ([6]; 50 μM, 12–18 h, acceptor concentration relative to equilibrium): 45 ± 10% | Papp at 50 μM ([6]; PAMPA, pH 7.4): 5.89 ×10⁻⁶ cm/s | Permeability% Average ([6]; top well sample vs theoretical equilibrium sample (TIC), average of R1-R3): 45.3% | Permeability% ([6]; top well sample vs theoretical equilibrium sample (TIC), single replicates R1-R3): 55.48% and 44.56% and 35.81%
